Experimental data taken from patent US9540391B2, “Isomannide derivatives as inhibitors of soluble epoxide hydrolase” (SANOFI, priority 2013, dated 2017).
pIC50: −log10 of the molar value.

Biological target: T1, recombinant sEH (Homo sapiens, UniProt P34913)
T1 construct: made in house; host or cells: Sf9 insect cells
T1 sequence (P34913 1-555): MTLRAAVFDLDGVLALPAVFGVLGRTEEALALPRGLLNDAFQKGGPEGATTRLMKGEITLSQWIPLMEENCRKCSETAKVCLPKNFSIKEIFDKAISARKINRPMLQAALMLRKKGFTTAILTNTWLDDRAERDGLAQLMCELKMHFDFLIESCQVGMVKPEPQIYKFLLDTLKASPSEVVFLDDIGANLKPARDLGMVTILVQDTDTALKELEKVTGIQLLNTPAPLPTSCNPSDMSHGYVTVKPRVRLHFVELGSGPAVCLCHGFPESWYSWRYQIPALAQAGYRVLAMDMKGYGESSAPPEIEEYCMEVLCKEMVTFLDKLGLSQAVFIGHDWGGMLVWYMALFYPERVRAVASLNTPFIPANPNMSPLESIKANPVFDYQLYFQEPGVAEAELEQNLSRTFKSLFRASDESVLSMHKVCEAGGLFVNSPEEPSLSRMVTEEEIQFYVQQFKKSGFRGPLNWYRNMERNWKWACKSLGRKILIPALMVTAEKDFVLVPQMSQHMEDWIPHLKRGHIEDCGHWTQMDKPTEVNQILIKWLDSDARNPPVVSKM
Assay: biochemical screening assay for inhibition of soluble epoxide hydrolase (fluorometric, Phome substrate)
Procedure, shortened: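 Reading fluorescence before substrate addition and after completion corrected for autofluorescence. Reaction: 5 μM Phome, 2 nM recombinant human sEH (Sf9-expressed), compound 0.0001–10 μM, 25 mM Hepes with 0.01% albumin, 15 min pre-incubation then 60 min at 30 °C; IC50 derived from % inhibition.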

First: COCC1(NC(=O)N[C@H]2CO[C@H]3[C@@H]2OC[C@@H]3Oc2cccnc2C)CCCC1 [Example 210, 1-(1-Methoxymethyl-cyclopentyl)-3-[(3S,3aR,6S,6aS)-6-(2-methyl-pyridin-3-yloxy)-hexahydro-furo[3,2-b]furan-3-yl]-urea]
Second: Cc1ncccc1O[C@H]1CO[C@H]2[C@@H]1OC[C@@H]2NC(=O)NC1(C#N)CCCCC1 [Example 220, 1-(1-Cyano-cyclohexyl)-3-[(3S,3aR,6S,6aS)-6-(2-methyl-pyridin-3-yloxy)-hexahydro-furo[3,2-b]furan-3-yl]-urea]
The pIC50 of the first is 0.54 log units higher: 6.84 for the first, 6.30 for the second.

Compared with `COCC(NC(=O)N[C@H]1CO[C@H]2[C@@H]1OC[C@@H]2Oc1cccnc1C)c1ccnn1C` (stereo partly drawn) [Example 211, 1-[2-Methoxy-1-(2-methyl-2H-pyrazol-3-yl)-ethyl]-3-[(3S,3aR,6S,6aS)-6-(2-methyl-pyridin-3-yloxy)-hexahydro-furo[3,2-b]furan-3-yl]-urea], `COC[C@@H](NC(=O)N[C@H]1CO[C@H]2[C@@H]1OC[C@@H]2Oc1cccnc1C)c1ccccc1` [Example 237, 1-((S)-2-Methoxy-1-phenyl-ethyl)-3-[(3S,3aR,6S,6aS)-6-(2-methyl-pyridin-3-yloxy)-hexahydro-furo[3,2-b]furan-3-yl]-urea] is 0.78 log units higher in pIC50: 5.97 for the first, 6.75 for the second.

Going from `Cc1ncccc1O[C@H]1CO[C@H]2[C@@H]1OC[C@@H]2NC(=O)NC1CCN(C(=O)C(C)C)CC1` [Example 212, 1-(1-Isobutyryl-piperidin-4-yl)-3-[(3S,3aR,6S,6aS)-6-(2-methyl-pyridin-3-yloxy)-hexahydro-furo[3,2-b]furan-3-yl]-urea] to `Cc1ncccc1O[C@H]1CO[C@H]2[C@@H]1OC[C@@H]2NC(=O)NC1CCOCC1` [Example 216, 1-[(3S,3aR,6S,6aS)-6-(2-Methyl-pyridin-3-yloxy)-hexahydro-furo[3,2-b]furan-3-yl]-3-(tetrahydro-pyran-4-yl)-urea], the pIC50 falls from 7.43 to 6.90 (0.53 log units). The first is the more potent here.

Going from `Cc1ncccc1O[C@H]1CO[C@H]2[C@@H]1OC[C@@H]2NC(=O)NC[C@@H]1C[C@@H]2C[C@H]([C@H]1C)C2(C)C` [Example 213, 1-[(3S,3aR,6S,6aS)-6-(2-Methyl-pyridin-3-yloxy)-hexahydro-furo[3,2-b]furan-3-yl]-3-((1R,2R,3R,5S)-2,6,6-trimethyl-bicyclo[3.1.1]hept-3-ylmethyl)-urea] to `Cc1ncccc1OC1COC2C(NC(=O)NC3CC4CCC3(C)C4(C)C)COC12` [Example 231, 1-[(2R,3aS,5S,6S)-6-(2-Methyl-pyridin-3-yloxy)-hexahydro-furo[3,2-b]furan-3-yl]-3-((1R,4R)-1,7,7-trimethyl-bicyclo[2.2.1]hept-2-yl)-urea], the pIC50 falls from 8.52 to 8.00 (0.52 log units). The first is the more potent here.

Going from `Cc1ncccc1O[C@H]1CO[C@H]2[C@@H]1OC[C@@H]2NC(=O)NC(C)c1ccc(F)cc1` (stereo partly drawn) [Example 214, 1-[1-(4-Fluoro-phenyl)-ethyl]-3-[(3S,3aR,6S,6aS)-6-(2-methyl-pyridin-3-yloxy)-hexahydro-furo[3,2-b]furan-3-yl]-urea] to `Cc1ncccc1O[C@H]1CO[C@H]2[C@@H]1OC[C@@H]2NC(=O)NC(C)c1c(C)nn(C)c1C` (stereo partly drawn) [Example 234, 1-[(3S,3aR,6S,6aS)-6-(2-Methyl-pyridin-3-yloxy)-hexahydro-furo[3,2-b]furan-3-yl]-3-[1-(1,3,5-trimethyl-1H-pyrazol-4-yl)-ethyl]-urea], the pIC50 falls from 7.85 to 6.76 (1.09 log units). The first is the more potent here.

`Cc1ncccc1O[C@H]1CO[C@H]2[C@@H]1OC[C@@H]2NC(=O)Nc1cc(C(C)(C)C)[nH]n1` [Example 215, 1-(5-tert-Butyl-1H-pyrazol-3-yl)-3-[(3S,3aR,6S,6aS)-6-(2-methyl-pyridin-3-yloxy)-hexahydro-furo[3,2-b]furan-3-yl]-urea] and `Cc1ncccc1O[C@H]1CO[C@H]2[C@@H]1OC[C@@H]2NC(=O)NCCOC(C)(C)C` [Example 217, 1-(2-tert-Butoxy-ethyl)-3-[(3S,3aR,6S,6aS)-6-(2-methyl-pyridin-3-yloxy)-hexahydro-furo[3,2-b]furan-3-yl]-urea] are within 0.2 log units of each other in pIC50: 6.62 for the first, 6.43 for the second.

Compared with `Cc1nc(CCNC(=O)N[C@H]2CO[C@H]3[C@@H]2OC[C@@H]3Oc2cccnc2C)cs1` [Example 218, 1-[(3S,3aR,6S,6aS)-6-(2-Methyl-pyridin-3-yloxy)-hexahydro-furo[3,2-b]furan-3-yl]-3-[2-(2-methyl-thiazol-4-yl)-ethyl]-urea], `Cc1nc(CNC(=O)N[C@H]2CO[C@H]3[C@@H]2OC[C@@H]3Oc2cccnc2C)cs1` [Example 227, 1-[(3S,3aR,6S,6aS)-6-(2-Methyl-pyridin-3-yloxy)-hexahydro-furo[3,2-b]furan-3-yl]-3-(2-methyl-thiazol-4-ylmethyl)-urea] is 0.64 log units lower in pIC50: 6.41 for the first, 5.77 for the second. The first is the more potent here.

Compared with `Cc1ncccc1O[C@H]1CO[C@H]2[C@@H]1OC[C@@H]2NC(=O)NCC1CN(C)CCO1` (stereo partly drawn) [Example 219, 1-(4-Methyl-morpholin-2-ylmethyl)-3-[(3S,3aR,6S,6aS)-6-(2-methyl-pyridin-3-yloxy)-hexahydro-furo[3,2-b]furan-3-yl]-urea], `Cc1ncccc1O[C@H]1CO[C@H]2[C@@H]1OC[C@@H]2NC(=O)NCCC1CCCCO1` (stereo partly drawn) [Example 235, 1-[(3S,3aR,6S,6aS)-6-(2-Methyl-pyridin-3-yloxy)-hexahydro-furo[3,2-b]furan-3-yl]-3-[2-(tetrahydro-pyran-2-yl)-ethyl]-urea] is 1.35 log units higher in pIC50: 5.72 for the first, 7.07 for the second. The second is the more potent here.

Compared with `Cc1ncccc1O[C@H]1CO[C@H]2[C@@H]1OC[C@@H]2NC(=O)NC1CCCOC1` (stereo partly drawn) [Example 221, 1-[(3S,3aR,6S,6aS)-6-(2-Methyl-pyridin-3-yloxy)-hexahydro-furo[3,2-b]furan-3-yl]-3-(tetrahydro-pyran-3-yl)-urea], `Cc1ncccc1O[C@H]1CO[C@H]2[C@@H]1OC[C@@H]2NC(=O)NC1CCSCC1` [Example 228, 1-[(3S,3aR,6S,6aS)-6-(2-Methyl-pyridin-3-yloxy)-hexahydro-furo[3,2-b]furan-3-yl]-3-(tetrahydro-thiopyran-4-yl)-urea] is 1.03 log units higher in pIC50: 7.02 for the first, 8.05 for the second. The second is the more potent here.

`Cc1ncccc1O[C@H]1CO[C@H]2[C@@H]1OC[C@@H]2NC(=O)NCc1c(C)n[nH]c1C` [Example 222, 1-(3,5-Dimethyl-1H-pyrazol-4-ylmethyl)-3-[(3S,3aR,6S,6aS)-6-(2-methyl-pyridin-3-yloxy)-hexahydro-furo[3,2-b]furan-3-yl]-urea] and `Cc1nn(C(C)C)cc1NC(=O)N[C@H]1CO[C@H]2[C@@H]1OC[C@@H]2Oc1cccnc1C` [Example 225, 1-(1-Isopropyl-3-methyl-1H-pyrazol-4-yl)-3-[(3S,3aR,6S,6aS)-6-(2-methyl-pyridin-3-yloxy)-hexahydro-furo[3,2-b]furan-3-yl]-urea] are within 0.2 log units of each other in pIC50: 7.27 for the first, 7.37 for the second.

First: Cc1ncccc1O[C@H]1CO[C@H]2[C@@H]1OC[C@@H]2NC(=O)NCCc1ccc(S(C)(=O)=O)cc1 [Example 223, 1-[2-(4-Methanesulfonyl-phenyl)-ethyl]-3-[(3S,3aR,6S,6aS)-6-(2-methyl-pyridin-3-yloxy)-hexahydro-furo[3,2-b]furan-3-yl]-urea]
Second: Cc1ncccc1O[C@H]1CO[C@H]2[C@@H]1OC[C@@H]2NC(=O)NCCN1CCCC1=O [Example 236, 1-[(3S,3aR,6S,6aS)-6-(2-Methyl-pyridin-3-yloxy)-hexahydro-furo[3,2-b]furan-3-yl]-3-[2-(2-oxo-pyrrolidin-1-yl)-ethyl]-urea]
The pIC50 of the first is 1.16 log units higher: 6.58 for the first, 5.42 for the second. The first is the more potent here.

Compared with `Cc1ncccc1O[C@H]1CO[C@H]2[C@@H]1OC[C@@H]2NC(=O)NCc1cccc2c1OC(C)(C)C2` [Example 224, 1-(2,2-Dimethyl-2,3-dihydro-benzofuran-7-ylmethyl)-3-[(3S,3aR,6S,6aS)-6-(2-methyl-pyridin-3-yloxy)-hexahydro-furo[3,2-b]furan-3-yl]-urea], `Cc1ncccc1O[C@H]1CO[C@H]2[C@@H]1OC[C@@H]2NC(=O)NC(C)(C)c1cccnc1` [Example 233, 1-(1-Methyl-1-pyridin-3-yl-ethyl)-3-[(3S,3aR,6S,6aS)-6-(2-methyl-pyridin-3-yloxy)-hexahydro-furo[3,2-b]furan-3-yl]-urea] is 1.96 log units lower in pIC50: 7.41 for the first, 5.45 for the second.

Compared with `Cc1ncccc1O[C@H]1CO[C@H]2[C@@H]1OC[C@@H]2NC(=O)NC(C)(C)COC(C)(C)C` [Example 226, 1-(2-tert-Butoxy-1,1-dimethyl-ethyl)-3-[(3S,3aR,6S,6aS)-6-(2-methyl-pyridin-3-yloxy)-hexahydro-furo[3,2-b]furan-3-yl]-urea], `Cc1ncccc1O[C@H]1CO[C@H]2[C@@H]1OC[C@@H]2NC(=O)NC(C)(C)C(F)(F)F` [Example 232, 1-[(3S,3aR,6S,6aS)-6-(2-Methyl-pyridin-3-yloxy)-hexahydro-furo[3,2-b]furan-3-yl]-3-(2,2,2-trifluoro-1,1-dimethyl-ethyl)-urea] is 0.25 log units higher in pIC50: 6.32 for the first, 6.57 for the second. The second is the more potent here.

First: Cc1ncccc1O[C@H]1CO[C@H]2[C@@H]1OC[C@@H]2NC(=O)NC1(c2cccc(F)c2)CCCC1 [Example 229, 1-[1-(3-Fluoro-phenyl)-cyclopentyl]-3-[(3S,3aR,6S,6aS)-6-(2-methyl-pyridin-3-yloxy)-hexahydro-furo[3,2-b]furan-3-yl]-urea]
Second: Cc1ncccc1OC1COC2C(NC(=O)NC34CC5(C)CC(C)(CC(O)(C5)C3)C4)COC12 [Example 230, 1-((1R,3S,5R,7S)-3-Hydroxy-5,7-dimethyl-adamantan-1-yl)-3-[(3S,3aR,6S,6aS)-6-(2-methyl-pyridin-3-yloxy)-hexahydro-furo[3,2-b]furan-3-yl]-urea]
The pIC50 of the first is 1.78 log units lower: 5.94 for the first, 7.72 for the second. The second is the more potent here.
